Measured values: BindingDB's records for doi:10.1021/jm048962u (The Burnham Institute, 2005)

Biological target: RAC-alpha serine/threonine-protein kinase (Homo sapiens, UniProt P31749)
Test: Z-LYTE Kinase Assy
Conditions: pH 7.5; 25 °C
Excerpt: The Z-LYTE assay (Invitrogen Corporation) employs a FRET-based, coupled-enzyme format and is based on the differential sensitivity of phosphorylated and non-phosphorylated peptides to proteolytic cleavage. A site-specific protease recognizes and cleaves nonphosphorylated peptides. […] Cleavage disrupts FRET between the donor (coumarin) and acceptor (fluorescein) fluorophores on the peptide, whereas uncleaved, phosphorylated peptides maintain FRET. The ratio of donor emission to acceptor emission after excitation of the donor fluorophore at 400 nm, quantitates reaction progress.

Sequence of RAC-alpha serine/threonine-protein kinase (P31749 whole entry): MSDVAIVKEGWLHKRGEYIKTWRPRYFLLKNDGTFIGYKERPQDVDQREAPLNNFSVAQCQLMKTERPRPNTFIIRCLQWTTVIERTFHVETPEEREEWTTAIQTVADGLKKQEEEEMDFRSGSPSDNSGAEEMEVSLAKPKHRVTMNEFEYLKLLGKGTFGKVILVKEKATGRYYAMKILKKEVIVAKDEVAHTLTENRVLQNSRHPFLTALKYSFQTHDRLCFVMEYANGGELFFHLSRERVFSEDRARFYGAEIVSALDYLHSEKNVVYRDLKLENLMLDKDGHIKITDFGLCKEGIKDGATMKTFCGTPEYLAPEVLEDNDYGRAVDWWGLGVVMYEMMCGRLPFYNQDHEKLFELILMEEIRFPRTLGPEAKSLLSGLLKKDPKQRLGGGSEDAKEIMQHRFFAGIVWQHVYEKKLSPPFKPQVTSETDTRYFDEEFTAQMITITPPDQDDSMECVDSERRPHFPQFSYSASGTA

IC50	Ki	Compound
2600 nM	1100 nM	C=c1c(C#N)c2[nH]c(N)c(C#N)c(C)c-2c1=Cc1ccc(-c2ccc(C(=O)O)c(Cl)c2)o1
60200 nM		C=c1c(C#N)c2[nH]c(N)c(C#N)c(C)c-2c1=Cc1ccc(-c2cccc(C(=O)O)c2)o1 [3-(5-{[(5E)-2-amino-3,7-dicyano-4,6-dimethyl-5H-cyclopenta[b]pyridin-5-ylidene]methyl}furan-2-yl)benzoic acid]
